From article PMC8504577, “Evaluation of a Clinically Relevant Drug–Drug Interaction Between Rosuvastatin and Clopidogrel and the Risk of Hepatotoxicity” (Frontiers in Pharmacology, 2021)
Entries after “also recorded” stand apart in the source; their conditions may differ. Like-named read-outs stand apart in the source and are kept apart here.

Columns and labels:
[1] = biological target: T1, OATP1B1 (Homo sapiens, UniProt Q9Y6L6); test: cell-based
T1 sequence (Q9Y6L6 1-691): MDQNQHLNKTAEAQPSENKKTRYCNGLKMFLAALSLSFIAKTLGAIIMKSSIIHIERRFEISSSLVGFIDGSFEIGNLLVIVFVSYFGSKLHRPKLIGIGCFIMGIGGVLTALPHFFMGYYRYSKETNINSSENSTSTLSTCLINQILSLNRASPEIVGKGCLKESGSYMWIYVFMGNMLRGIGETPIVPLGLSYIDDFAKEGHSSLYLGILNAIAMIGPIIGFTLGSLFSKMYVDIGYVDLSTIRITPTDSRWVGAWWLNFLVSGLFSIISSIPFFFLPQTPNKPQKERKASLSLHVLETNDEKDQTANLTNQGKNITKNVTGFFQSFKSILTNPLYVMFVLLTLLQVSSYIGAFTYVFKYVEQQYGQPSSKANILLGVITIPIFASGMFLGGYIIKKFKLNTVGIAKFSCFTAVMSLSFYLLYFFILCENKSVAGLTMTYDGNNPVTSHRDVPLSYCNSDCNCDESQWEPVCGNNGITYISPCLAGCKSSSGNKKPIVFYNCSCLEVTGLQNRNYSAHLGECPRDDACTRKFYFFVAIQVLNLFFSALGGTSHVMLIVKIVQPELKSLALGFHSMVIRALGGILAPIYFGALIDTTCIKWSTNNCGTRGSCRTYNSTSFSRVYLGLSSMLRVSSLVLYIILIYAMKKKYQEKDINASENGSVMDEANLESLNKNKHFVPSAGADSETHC
Procedure: (§1) The OATP1B1, OATP1B3, and mock cells were cultured in the DMEM medium containing 10% fetal bovine serum, penicillin–streptomycin solution (100 U/mL and 0.1 mg/ml), and 0.5 mg/ml geneticin at 37°C in the presence of 5% CO2. The cells were seeded in a 24-well plate at a density of 4×10^5 cells/well and grown for 80–90% confluence. […] After washing the cells three times with transporter buffer at 4°C, the cells were lysed with liquid nitrogen. The lysates were precipitated with methanol and centrifuged at 12,000 rpm at 4°C for 5 min. The supernatant was analyzed by LC-MS/MS. Protein concentration was determined using the Pierce® BCA Protein Assay Kit. All experiments were performed in triplicate.
(§2) Phoenix WinNonlin® 7.1 (Pharsight Corporation, Mountain View, CA, United States) was used to calculate the pharmacokinetic parameters by the noncompartmental method. IC50 values were obtained by a computer-generated nonlinear least squares fit using GraphPad Prism 8.1 (GraphPad Software, San Diego, CA, United States). Statistical analysis was performed using SPSS ver. 22.0 (IBM, Chicago, IL, United States). The results are presented as mean ± S.D., unless otherwise stated. After testing for the homogeneity of variance, statistical analysis was performed with a one-way ANOVA followed by the LSD post hoc test or unpaired Student’s t-test. A probability (p) of less than 0.05, 0.01, and 0.001 was considered to be statistically significant, highly significant, and extremely significant, respectively.

[2] = biological target: T2, OATP1B3 (Homo sapiens, UniProt Q9NPD5); test: cell-based
T2 sequence (Q9NPD5 1-702): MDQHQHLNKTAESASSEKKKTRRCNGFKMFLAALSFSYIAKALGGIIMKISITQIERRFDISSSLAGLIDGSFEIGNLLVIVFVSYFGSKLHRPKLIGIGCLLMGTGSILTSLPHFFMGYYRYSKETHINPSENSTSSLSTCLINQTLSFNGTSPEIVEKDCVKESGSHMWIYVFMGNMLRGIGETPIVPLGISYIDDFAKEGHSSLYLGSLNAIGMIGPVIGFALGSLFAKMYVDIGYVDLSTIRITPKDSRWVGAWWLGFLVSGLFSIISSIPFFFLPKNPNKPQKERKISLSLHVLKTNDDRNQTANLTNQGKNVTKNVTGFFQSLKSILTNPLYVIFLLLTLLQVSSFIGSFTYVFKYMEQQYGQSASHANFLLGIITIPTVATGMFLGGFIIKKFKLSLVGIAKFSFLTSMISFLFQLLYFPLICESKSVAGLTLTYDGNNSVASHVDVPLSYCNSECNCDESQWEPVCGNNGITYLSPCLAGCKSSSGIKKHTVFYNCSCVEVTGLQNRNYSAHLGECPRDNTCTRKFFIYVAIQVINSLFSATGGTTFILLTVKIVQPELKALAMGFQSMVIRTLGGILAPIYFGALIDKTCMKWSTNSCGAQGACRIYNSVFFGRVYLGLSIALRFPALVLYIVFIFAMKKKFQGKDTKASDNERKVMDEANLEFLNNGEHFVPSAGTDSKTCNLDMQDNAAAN
Procedure: as §1, §2

[3] = system: BCRP; conditions: read-out: IC50 BCRP; BCRP-mediated RSV transport, membrane vesicles; ref Varma et al. (2019); cited from earlier work
[4] = for I2, maximal theoretical gastrointestinal concentration: dose/250 ml; for Imax,u, unbound steady-state plasma peak concentration: fu×I1
[5] = system: BCRP; conditions: read-out: IC50 BCRP; BCRP-mediated RSV transport, Caco-2 cells; ref Elsby et al. (2016); cited from earlier work
[6] = cited from earlier work; for I1, peak plasma concentration at steady state: ref Itkonen et al. (2015)
[7] = system: OATP1B3; parameters: method as in Elsby et al., 2016; conditions: ref Elsby et al., 2016; cited from earlier work
[8] = human, ref Pinheiro et al., 2012, Remsberg et al., 2013, cited from earlier work
[9] = system: sodium taurocholate cotransporting polypeptide (NTCP); conditions: ref Elsby et al., 2016; cited from earlier work
[10] = in 5 days after p.o. administration, ref Sanofi-Aventis, 2011

Structure (SMILES): COC(=O)[C@H](c1ccccc1Cl)N1CCc2sccc2C1 [CP, clopidogrel]
- IC50 [1]: 27.4 µM
- IC50 [2]: > 50 µM
- Inhibition of OATP1B3-mediated RSV transport ([2]; 1 μM RSV, CPC 0.05–50 μM): did not inhibit; also recorded: did not affect
- IC50 [3]: 104 µM
- Iin,max,u, steady-state unbound liver inlet concentration ([4]; 75 mg CP): 0.31 µM
- I2, maximal theoretical gastrointestinal concentration ([4]; 75 mg CP): 932.19 µM
- Imax,u, unbound steady-state plasma peak concentration ([4]; 75 mg CP): 0.00002 µM
- Iin,max,u, steady-state unbound liver inlet concentration ([4]; 300 mg CP): 1.24 µM
- I2, maximal theoretical gastrointestinal concentration ([4]; 300 mg CP): 3,728.77 μM
- Imax,u, unbound steady-state plasma peak concentration ([4]; 300 mg CP): 0.00018 µM
- IC50 [5]: 63 µM
- I1, peak plasma concentration at steady state ([6]; 75 mg CP): 0.0010 [Itkonen et al. (2015)] μM
- I1, peak plasma concentration at steady state ([6]; 300 mg CP): 0.0089 [Itkonen et al. (2015)] μM
- Absorbed CP converted into inactive carboxylic acid metabolites (CPC) by CES1 in the liver ([6]; at least, ref Jiang et al., 2015): 85–90%
- Excreted as inactive metabolites via feces [6, 10]: ~46%
- Excreted as inactive metabolites via urine [6, 10]: ~50%
- CP undergoing two-step oxidization by CYP enzymes to active metabolite ([6]; ref Jiang et al., 2015): About 2%
- Elimination half-life ([6]; ref Sanofi-Aventis, 2011): 6 h

Structure (SMILES): CC(C)c1nc(N(C)S(C)(=O)=O)nc(-c2ccc(F)cc2)c1/C=C/[C@@H](O)C[C@@H](O)CC(=O)O [RSV, rosuvastatin]
- Individual contribution of OATP1B3 to hepatic uptake [7]: 0.11
- Increase of RSV AUC with concomitant CP ([8]; 20 mg RSV): 2.0 fold
- Increase of RSV Cmax with concomitant CP ([8]; 20 mg RSV): 2.2 fold
- Increase of RSV AUC with concomitant CP ([8]; 40 mg RSV): 1.7 fold
- Increase of RSV Cmax with concomitant CP ([8]; 40 mg RSV): 1.3 fold
- Individual contribution of NTCP to hepatic uptake [9]: 0.21
